pIC50: −log10 of the molar value. Like-named read-outs stand apart in the source and are kept apart here.
Tests used:
[1] = test system: MV4-11 (expressing FLT3/ITD mutant gene); experiment: Cell proliferation, Cell Titer-Glo, MV4-11; type: cell-based; settings: Homo sapiens; for pIC50: MV4-11, incubated for 72 hours, read-out: MV4-11 IC50
Procedure, shortened: (§1)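 Read-out: luminescence from ATP in live cells (CellTiter-Glo), taken as viable cell number. Cell lines were built in-house.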

[2] = test system: MOLM-13 (expressing FLT3/ITD mutant gene and wild-type FLT3 gene); experiment: Cell proliferation, Cell Titer-Glo, MOLM-13; type: cell-based; settings: Homo sapiens; for pIC50: MOLM-13, incubated for 72 hours, read-out: MOLM-13 IC50
Procedure, shortened: as §1

[3] = test system: MOLM-14 (expressing FLT3/ITD mutant gene and wild-type FLT3 gene); experiment: Cell proliferation, Cell Titer-Glo, MOLM-14; type: cell-based; settings: Homo sapiens; for pIC50: MOLM-14, incubated for 72 hours, read-out: MOLM-14 IC50
Procedure: (§2) The above cell lines were constructed by our laboratory.
(§3) The number of viable cells was determined by quantification of ATP in living cells using the Cell Titer-Glo® (Promega, USA) chemiluminescence cell viability assay kit.

[4] = test system: TEL-BaF3-FLT3/ITD (stably expressing FLT3/ITD mutant activated kinase); experiment: Cell proliferation, Cell Titer-Glo, TEL-BaF3-FLT3/ITD; type: cell-based, mouse; settings: Mus musculus, 72 h, incubated for 72 hours; read-out: TEL-BaF3-FLT3/ITD IC50
Procedure, shortened: (§4)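 Cells from the in-house-constructed BaF3 lines were grown with compound. Viability was then scored by chemiluminescent detection of cellular ATP.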

[5] = test system: TEL-BaF3-FLT3-D835Y (stably expressing FLT3 D835Y mutant activated kinase); experiment: Cell proliferation, Cell Titer-Glo, TEL-BaF3-FLT3-D835Y; type: cell-based; settings: Mus musculus; for pIC50: incubated for 72 hours, read-out: TEL-BaF3-FLT3-D835Y IC50
Procedure: as §2, §3

[6] = test system: BaF3-FLT3-ITD-D835Y (stably expressing FLT3/ITD D835Y mutant activated kinase); experiment: Cell proliferation, Cell Titer-Glo, BaF3-FLT3-ITD-D835Y; type: cell-based; settings: Mus musculus; for pIC50: incubated for 72 hours, read-out: BaF3-FLT3-ITD-D835Y IC50
Procedure: as §2, §3

[7] = test system: BaF3-FLT3-ITD-F691L (stably expressing FLT3/ITD F691L mutant activated kinase); experiment: Cell proliferation, Cell Titer-Glo, BaF3-FLT3-ITD-F691L; type: cell-based; settings: Mus musculus; for pIC50: incubated for 72 hours, read-out: BaF3-FLT3-ITD-F691L IC50
Procedure: as §2, §3

pro-B cell BaF3 = experiment: Cell proliferation, Cell Titer-Glo, BaF3; type: cell-based; settings: Mus musculus, incubated for 72 hours
Procedure, shortened: as §1

[8] = test system: U937 (expressing wild-type FLT3 gene); experiment: Cell proliferation, Cell Titer-Glo, U937; type: cell-based, human; settings: Homo sapiens, U-937, 72 h; for pIC50: incubated for 72 hours, read-out: U937 IC50
Procedure, shortened: as §1

[9] = test system: TEL-BaF3-BMX (stably expressing BMX kinase); experiment: Cell proliferation, Cell Titer-Glo, TEL-BaF3-BMX; type: cell-based; settings: Mus musculus; incubated for 72 hours
Procedure, shortened: as §4

[10] = test system: TEL-cKIT-BaF3 (stably expressing cKIT kinase); experiment: Cell proliferation, Cell Titer-Glo, TEL-cKIT-BaF3; type: cell-based; settings: Mus musculus; incubated for 72 hours
Procedure, shortened: as §4

[11] = test system: TPR-MET-BaF3 (stably expressing MET kinase); experiment: Cell proliferation, Cell Titer-Glo, TPR-MET-BaF3; type: cell-based; settings: Mus musculus; incubated for 72 hours
Procedure: as §2, §3

[12] = test system: TEL-BaF3-EGFR (stably expressing EGFR kinase); experiment: Cell proliferation, Cell Titer-Glo, TEL-BaF3-EGFR; type: cell-based; settings: Mus musculus; incubated for 72 hours
Procedure: as §2, §3

[13] = test system: TEL-BaF3-BLK (stably expressing BLK kinase); experiment: Cell proliferation, Cell Titer-Glo, TEL-BaF3-BLK; type: cell-based; settings: Mus musculus; incubated for 72 hours
Procedure, shortened: as §4

[14] = test system: TEL-JAK1-BaF3 (stably expressing JAK1 kinase); experiment: Cell proliferation, Cell Titer-Glo, TEL-JAK1-BaF3; type: cell-based; settings: Mus musculus; incubated for 72 hours
Procedure: as §2, §3

BTK protein kinase = BTK protein kinase (Homo sapiens (Human), UniProt Q06187); experiment: In vitro inhibition activity (enzymatic activity), ADP-Glo, BTK; type: biochemical; settings: ATP 10 μM
[15] = test system: OCI-AML-3 (expressing FLT3 A680V mutant gene); experiment: Cell proliferation, Cell Titer-Glo, OCI-AML3; type: cell-based; settings: Homo sapiens, incubated for 72 hours
Procedure, shortened: as §1

BTK protein kinase, sequence (Q06187 whole entry): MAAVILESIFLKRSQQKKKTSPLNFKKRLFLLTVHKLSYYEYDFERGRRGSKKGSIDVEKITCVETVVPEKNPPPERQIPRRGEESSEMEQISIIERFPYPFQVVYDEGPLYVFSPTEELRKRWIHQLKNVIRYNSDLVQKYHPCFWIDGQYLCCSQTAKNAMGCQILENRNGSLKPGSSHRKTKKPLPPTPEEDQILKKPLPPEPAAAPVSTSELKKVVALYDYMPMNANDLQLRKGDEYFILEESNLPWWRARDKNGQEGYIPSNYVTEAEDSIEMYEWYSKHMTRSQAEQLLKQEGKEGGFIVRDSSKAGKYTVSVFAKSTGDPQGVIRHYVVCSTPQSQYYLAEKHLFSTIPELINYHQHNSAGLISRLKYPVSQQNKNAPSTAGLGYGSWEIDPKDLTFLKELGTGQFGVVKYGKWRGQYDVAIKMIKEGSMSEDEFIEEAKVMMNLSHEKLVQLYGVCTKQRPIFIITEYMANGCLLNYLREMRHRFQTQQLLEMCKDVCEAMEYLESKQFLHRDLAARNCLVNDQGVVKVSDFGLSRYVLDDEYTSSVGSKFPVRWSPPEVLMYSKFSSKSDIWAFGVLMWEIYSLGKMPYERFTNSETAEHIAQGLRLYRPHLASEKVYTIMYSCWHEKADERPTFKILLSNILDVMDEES

Compound | pIC50 [1] | pIC50 [2] | pIC50 [3] | pIC50 [4] | pIC50 [5] | pIC50 [6] | pIC50 [7] | pIC50 (pro-B cell BaF3) | pIC50 [8] | pIC50 [9] | pIC50 [10] | pIC50 [11] | pIC50 [12] | pIC50 [13] | pIC50 [14] | pIC50 (BTK protein kinase) | further results
NC(=O)C(=O)N1CCC[C@@H](n2nc(-c3ccc(Oc4ccccc4)cc3)c3c(N)ncnc32)C1 [Compound 5, (R)-2-(3-(4-amino-(4-phenoxyphenyl)-1H-pyrazolo[3,4-d]pyrimidin-1-yl)piperidin-1-yl)-2-oxamide] | 6.92 | 7.07 | 6.68 | 6.29 | 7.47 | 6.49 | 6.43 | < 5.00 | 5.19 | 6.70 | 5.66 | 5.24 | < 5.00 | 6.01 | 5.40 | 7.40 | –
Nc1ncnc2c1c(-c1ccc(Oc3ccccc3)cc1)nn2[C@@H]1CCCN(C(=O)[C@H](N)Cc2c[nH]cn2)C1 [Compound 7, (R)-2-amino-1-((R)-3-(4-amino-(4-phenoxyphenyl)-1H-pyrazolo[3,4-d]pyrimidin-1-yl)piperidin-1-yl)-3-(1H-imidazol-4-yl)propan-1-one] | 8.00 | 8.92 | 7.64 | 8.05 | 6.52 | 6.96 | 6.60 | 6.36 | 6.27 | 6.48 | 6.46 | 6.28 | 6.00 | 7.29 | 6.43 | 7.57 | –
Nc1ncnc2c1c(-c1ccc(Oc3ccccc3)cc1)nn2[C@@H]1CCCN(C(=O)[C@@H](N)Cc2ccc(O)cc2)C1 [Compound 11, (S)-2-amino-1-((R)-3-(4-amino-(4-phenoxyphenyl)-1H-pyrazolo[3,4-d]pyrimidin-1-yl)piperidin-1-yl)-3-(4-hydroxyphenyl)propan-1-one] | 7.66 | 7.92 | 7.34 | 7.32 | 7.70 | 6.55 | 6.59 | 6.02 | 5.47 | 6.36 | 6.08 | 5.85 | 5.66 | 7.05 | 6.47 | – | –
Nc1ncnc2c1c(-c1ccc(Oc3ccccc3)cc1)nn2[C@@H]1CCCN(C(=O)N2CCNCC2)C1 [Compound 14, (R)-(3-(4-amino-(4-phenoxyphenyl)-1H-pyrazolo[3,4-d]pyrimidin-1-yl)piperidin-1-yl)(piperazin-1-yl)methanone] | 7.31 | 7.22 | 6.92 | 7.06 | 6.62 | 6.60 | 6.43 | 5.01 | 5.38 | 6.37 | 5.31 | 5.52 | 5.80 | 6.00 | 5.11 | 7.20 | –
CC[C@@H](C)[C@@H](N)C(=O)N1CCC[C@@H](n2nc(-c3ccc(Oc4ccccc4)cc3)c3c(N)ncnc32)C1 [Compound 25, (2R,3R)-2-amino-1-((R)-3-(4-amino-(4-phenoxyphenyl)-1H-pyrazolo[3,4-d]pyrimidin-1-yl)piperidin-1-yl)-3-methylpentan-1-one] | 6.92 | 6.92 | 6.72 | 7.06 | 6.74 | – | – | 5.77 | 5.72 | 6.29 | 5.51 | 5.77 | 6.05 | 5.96 | 5.48 | 6.67 | –
Nc1ncnc2c1c(-c1ccc(Oc3ccccc3)cc1)nn2[C@@H]1CCCN(C(=O)[C@H](N)Cc2ccccc2)C1 [Compound 26, (R)-2-amino-1-((R)-3-(4-amino-(4-phenoxyphenyl)-1H-pyrazolo[3,4-d]pyrimidin-1-yl)piperidin-1-yl)-3-phenylpropan-1-one] | 6.55 | 6.70 | 6.54 | 6.80 | 6.44 | – | – | 5.82 | 5.62 | 5.89 | 5.46 | 5.70 | 5.89 | 5.54 | 5.70 | 7.01 | –
CC(C)C[C@@H](N)C(=O)N1CCC[C@@H](n2nc(-c3ccc(Oc4ccccc4)cc3)c3c(N)ncnc32)C1 [Compound 27, (R)-2-amino-1-((R)-3-(4-amino-(4-phenoxyphenyl)-1H-pyrazolo[3,4-d]pyrimidin-1-yl)piperidin-1-yl)-4-methylpentan-1-one] | 7.49 | 7.85 | 7.64 | 8.30 | 7.74 | 6.70 | 6.55 | 5.89 | 5.39 | 6.47 | 5.80 | 5.82 | 6.00 | 6.68 | 5.66 | 6.16 | –
CS(=O)(=O)N1CCC[C@@H](n2nc(-c3ccc(Oc4ccccc4)cc3)c3c(N)ncnc32)C1 [Compound 30, (R)-1-(1-(methylsulfonyl)piperidin-3-yl)-3-(4-phenoxyphenyl)-1H-pyrazolo[3,4-d]pyrimidin-4-amine] | 6.77 | 6.89 | 6.59 | 7.32 | 6.19 | 5.60 | 5.28 | < 5.00 | < 5.00 | 6.85 | 5.36 | 5.03 | – | 5.46 | – | 5.74 | pIC50 [15]: < 5.00
CN1CCC(C(=O)N2CCC[C@@H](n3nc(-c4ccc(Oc5ccccc5)cc4)c4c(N)ncnc43)C2)CC1 [Compound 33, (R)-(3-(4-amino-(4-phenoxyphenyl)-1H-pyrazolo[3,4-d]pyrimidin-1-yl)piperidin-1-yl)(1-methylpiperidin-4-yl)methanone] | 6.80 | 6.80 | 6.66 | 7.11 | 6.85 | 6.20 | 6.55 | 5.30 | < 5.00 | 7.15 | 5.70 | 5.84 | – | 6.21 | – | 6.38 | pIC50 [15]: 5.28
NCC(=O)N1CCC[C@@H](n2nc(-c3ccc(Oc4ccccc4)cc3)c3c(N)ncnc32)C1 [Compound 43, (R)-2-amino-1-(3-(4-amino-(4-phenoxyphenyl)-1H-pyrazolo[3,4-d]pyrimidin-1-yl)piperidin-1-yl)ethanone] | 7.66 | 7.70 | 7.55 | 8.15 | – | 6.39 | 5.96 | 5.42 | 5.14 | 7.66 | – | 5.56 | – | 6.92 | – | 7.55 | pIC50 [15]: 5.22
CS(=O)(=O)NC1CCC(n2nc(-c3ccc(Oc4ccccc4)cc3)c3c(N)ncnc32)CC1 (centres unmarked) [Compound 78, N-(4-(4-amino-3-(4-phenoxyphenyl)-1H-pyrazolo[3,4-d]pyrimidin-1-yl)cyclohexyl)methanesulfonamide] | – | – | – | – | – | – | – | 5.22 | – | 7.42 | 6.49 | – | – | 8.40 | – | – | IC50 ([1]; MV4-11, 72 h, read-out: MV4-11 IC50 [μM]): 0.018 µM; IC50 ([2]; MOLM-13, 72 h, read-out: MOLM-13 IC50 [μM]): 0.019 µM; IC50 ([3]; MOLM-14, 72 h, read-out: MOLM-14 IC50 [μM]): 0.11 µM; IC50 ([5]; 72 h, read-out: TEL-BaF3-FLT3-D835Y IC50 [μM]): 0.0076 µM; IC50 ([6]; 72 h, read-out: BaF3-FLT3-ITD-D835Y IC50 [μM]): 0.053 µM; IC50 ([7]; 72 h, read-out: BaF3-FLT3-ITD-F691L IC50 [μM]): 0.27 µM; IC50 ([8]; read-out: U937 IC50 [μM], incubated for 72 hours): 3.6 µM
